Measured values published in patent US6303630A, “Diarylsulfone non-nucleoside reverse transcriptase inhibitors of human immunodeficiency virus” (University of the Sciences in Philadelphia, priority 2000, dated 2001).
Like-named read-outs stand apart in the source and are kept apart here.

Legend:
HIV-1 [1] = conditions: in vitro, McMahon et al. 1993; cited from earlier work
[2] = test system: HIV-1 reverse transcriptase; conditions: McMahon et al. 1993; cited from earlier work
HIV-1 [3] = conditions: Artico et al. 1995; cited from earlier work
HIV-1 [4] = assay: NCI in vitro anti-HIV drug screen: XTT-formazan assay, protection of T4 lymphocytes (CEM) from HIV-1 cytopathic effects; assay type: cell-based, human immunodeficiency virus (HIV-1); conditions: for EC50 / inhibition at 200 µM / inhibition at 20 µM / inhibition at 2 µM / inhibition at 0.2 µM / inhibition at 63.2 µM / inhibition at 6.33 µM / inhibition at 0.634 µM / inhibition at 0.0635 µM: Human immunodeficiency virus 1, CCRF-CEM; for EC50: 144 h, HIV-1 infected CEM cells, 6 days, XTT, approximate values, read-out: EC50 (50% effective concentration against HIV cytopathic effects); for inhibition at 200 µM / activity at 200 µM: dose 2.00 × 10^-4 Molar; for inhibition at 2 µM / activity at 2 µM: dose 2.00 × 10^-6 Molar; for inhibition at 0.2 µM / activity at 0.2 µM: dose 2.00 × 10^-7 Molar; for inhibition at 0.634 µM / activity at 0.634 µM: dose 6.34 × 10^-7 Molar; for inhibition at 0.0635 µM / activity at 0.0635 µM: dose 6.35 × 10^-8 Molar; for activity at 200 µM / activity at 20 µM / activity at 2 µM / activity at 0.2 µM / activity at 63.2 µM / activity at 6.33 µM / activity at 0.634 µM / activity at 0.0635 µM: Human immunodeficiency virus 1, Lymphocyte, read-out: Percent of Control, Infected; for TI50 (IC/EC), Therapeutic Index: IC50/EC50
Procedure, shortened: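 Protection from HIV-1 cytopathic killing was read spectrophotometrically via XTT formazan from viable cells after 6-day culture (37°, 5% CO2) of infected CEM cells with compound in half-log10 dilutions; drug-treated uninfected cells served as toxicity controls, AZT run alongside.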

[5] = test system: T4 lymphocytes (CEM cell line); assay: Cell growth / toxicity control in uninfected T4 lymphocytes (CEM), XTT-formazan; assay type: cell-based; conditions: Homo sapiens, CCRF-CEM; for IC50: 144 h, uninfected CEM cells, 6 days, XTT, approximate values, read-out: IC50 (50% inhibitory concentration for cell growth); for activity at 200 µM: dose 2.00 × 10^-4 Molar; for activity at 200 µM / activity at 20 µM / activity at 2 µM / activity at 0.2 µM / activity at 63.2 µM / activity at 6.33 µM / activity at 0.634 µM / activity at 0.0635 µM: read-out: Percent of Control, Uninfected; for activity at 20 µM: dose 2.00 × 10^-5 Molar; for activity at 2 µM: dose 2.00 × 10^-6 Molar; for activity at 0.2 µM: dose 2.00 × 10^-7 Molar; for activity at 63.2 µM: dose 6.32 × 10^-5 Molar; for activity at 6.33 µM: dose 6.33 × 10^-6 Molar; for activity at 0.634 µM: dose 6.34 × 10^-7 Molar; for activity at 0.0635 µM: dose 6.35 × 10^-8 Molar
Procedure, shortened: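 Toxicity control: compound, first dissolved in DMSO and serially diluted half-log10 to a final 1:200 dilution, incubated 6 days at 37° and 5% CO2 with CEM cells lacking HIV-1. Viable cells measured spectrophotometrically via XTT-derived formazan and checked microscopically.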

[6] = read-out: Percent of Protection
[7] = dose 2.00 × 10^-5 Molar, read-out: Percent of Protection
[8] = dose 6.32 × 10^-5 Molar, read-out: Percent of Protection
[9] = dose 6.33 × 10^-6 Molar, read-out: Percent of Protection

| SMILES | EC50 (HIV-1 [4]) [µM] | inhibition at 200 µM (HIV-1 [4]; [6]) [%] | inhibition at 2 µM (HIV-1 [4]; [6]) [%] | inhibition at 0.2 µM (HIV-1 [4]; [6]) [%] | inhibition at 0.634 µM (HIV-1 [4]; [6]) [%] | inhibition at 0.0635 µM (HIV-1 [4]; [6]) [%] | activity at 200 µM (HIV-1 [4]) [%] | activity at 20 µM (HIV-1 [4]; dose 2.00 × 10^-5 Molar) [%] | activity at 2 µM (HIV-1 [4]) [%] | activity at 0.2 µM (HIV-1 [4]) [%] | activity at 63.2 µM (HIV-1 [4]; dose 6.32 × 10^-5 Molar) [%] | activity at 6.33 µM (HIV-1 [4]; dose 6.33 × 10^-6 Molar) [%] | activity at 0.634 µM (HIV-1 [4]) [%] | activity at 0.0635 µM (HIV-1 [4]) [%] | TI50 (IC/EC), Therapeutic Index (HIV-1 [4]) | IC50 [5] [µM] | activity at 200 µM [5] [%] | activity at 20 µM [5] [%] | activity at 2 µM [5] [%] | activity at 0.2 µM [5] [%] | other results |
| --- | --- | --- | --- | --- | --- | --- | --- | --- | --- | --- | --- | --- | --- | --- | --- | --- | --- | --- | --- | --- | --- |
| O=[N+]([O-])c1ccccc1S(=O)(=O)c1ccccc1 [2-nitrophenyl phenylsulfone] | – | – | – | – | – | – | – | – | – | – | – | – | – | – | – | – | – | – | – | – | protecting human cells in culture from HIV-1 cytopathic effects / preventing HIV-1 replication (HIV-1 [1]): high efficacy; inhibition of HIV-1 replication via inhibition of HIV-1 reverse transcriptase [2]: inhibition of HIV-1 replication via inhibition of HIV-1 reverse transcriptase |
| CCOC(=O)c1cccn1S(=O)(=O)c1ccccc1[N+](=O)[O-] | – | – | – | – | – | – | – | – | – | – | – | – | – | – | – | – | – | – | – | – | anti-HIV-1 efficacy (HIV-1 [3]): the most efficacy |
| CNc1ccc(Cl)cc1S(=O)(=O)c1ccccc1[N+](=O)[O-] [Compound 72, 2-(2-nitrophenylsulfonyl)4-chloro-N-methylaniline] | 0.075 | 74 | 93.4 | 76 | 102 | 46.1 | 74.5 | 84.3 | 93.6 | 76.5 | 85.8 | 93.4 | 102 | 47.1 | > 2.67 × 10^+3 | > 200 | 84 | 93.6 | 95.8 | 102 | inhibition at 20 µM (HIV-1 [4]; [7]): 84%; inhibition at 63.2 µM (HIV-1 [4]; [8]): 85.5%; inhibition at 6.33 µM (HIV-1 [4]; [9]): 93.3%; activity at 63.2 µM [5]: 97%; activity at 6.33 µM [5]: 101%; activity at 0.634 µM [5]: 101%; activity at 0.0635 µM [5]: 99% |
| CN(c1ccccc1Cl)S(=O)(=O)c1ccccc1[N+](=O)[O-] [Compound 38, N-(2-nitrophenylsulfonyl)-2chloro-N-methylaniline] | 4.38 | 2.73 | 10.4 | 2.73 | -0.31 | -0.27 | 28.4 | 63.8 | 14.9 | 7.25 | 26.1 | 70.6 | 4.71 | 4.74 | 7.79 × 10^0 | 34.1 | 3.62 | 75.7 | 98.2 | 99.3 | inhibition at 20 µM (HIV-1 [4]; read-out: Percent of Protection, dose 2.00 × 10^-5 Molar): 61.9%; inhibition at 63.2 µM (HIV-1 [4]; read-out: Percent of Protection, dose 6.32 × 10^-5 Molar): -0.27%; inhibition at 6.33 µM (HIV-1 [4]; read-out: Percent of Protection, dose 6.33 × 10^-6 Molar): 69%; activity at 63.2 µM [5]: 20.3%; activity at 6.33 µM [5]: 94.2%; activity at 0.634 µM [5]: 98.6%; activity at 0.0635 µM [5]: 101% |
| CNc1ccccc1S(=O)(=O)c1ccccc1Cl [Compound 82, 2-(2-CHLOROPHENYSULFONYL)-N-METHYLANILINE] | 29.7 | 3.76 | -5.07 | -22.6 | -8.87 | 23.7 | 34.6 | 60.1 | 28.6 | 16.6 | 78.3 | 48.6 | 26 | 48.1 | 4.93 × 10^0 | 146 | 33.9 | 78.2 | 91.2 | 60.8 | inhibition at 20 µM (HIV-1 [4]; [7]): 41.4%; inhibition at 63.2 µM (HIV-1 [4]; [8]): 68.1%; inhibition at 6.33 µM (HIV-1 [4]; [9]): 24.5%; activity at 63.2 µM [5]: 93.3%; activity at 6.33 µM [5]: 84.2%; activity at 0.634 µM [5]: 96.1%; activity at 0.0635 µM [5]: 93.2% |
